Data published in patent US11274083B2, “Substituted thiophenyl uracils, salts thereof and the use thereof as herbicidal agents” (Syngenta Crop Protection AG, priority 2017, dated 2022).

What was measured:
Type in all cases: in vivo
[1] = test system: Viola tricolor; test: Herbicidal action post-emergence, greenhouse pot test
Experimental: (§1) Seeds of mono- and dicotyledonous weed plants and crop plants were laid out in sandy loam soil in plastic or wood-fiber pots, covered with soil and grown under controlled growth conditions in a greenhouse. 2 to 3 weeks after sowing, the trial plants were treated at the one-leaf stage. The compounds of the invention formulated in the form of wettable powders (WP) or as emulsion concentrates (EC) were then sprayed onto the green parts of the plant as an aqueous suspension or emulsion with addition of 0.5% additive at a water application rate equivalent to 600 L/ha. After the trial plants had stood for about 3 weeks in the greenhouse, under optimal growth conditions, the effect of the preparations was scored visually by comparison with untreated controls. For example, 100% efficacy=plants have died, 0% efficacy=like control plants. Tables A1 to A16 below show the efficacies of selected compounds of the general formula (I) according to tables I.1 to I.50 on various harmful plants and an application rate corresponding to 80 g/ha or lower that were obtained by the aforementioned trial method.

[2] = test system: Lolium rigidum; test: as above
Experimental: as §1

[3] = test system: Echinochloa crus-galli; test: as above
Experimental: as §1

[4] = test system: Abutilon theophrasti; test: as above
Experimental: as §1

[5] = test system: Polygonum convolvulus; test: as above
Experimental: as §1

[6] = test system: Setaria viridis; test: as above
Experimental: as §1

[7] = test system: Stellaria media; test: as above
Experimental: as §1

[8] = test system: Veronica persica; test: as above
Experimental: as §1

[9] = test system: Pharbitis purpurea; test: as above
Experimental: as §1

[10] = test system: Matricaria inodora; test: as above
Experimental: as §1

[11] = test system: Amaranthus retroflexus; test: as above
Experimental: as §1

[12] = test system: Viola tricolor; test: Herbicidal action pre-emergence, greenhouse pot test; details: application rate 320 g/ha
Excerpt: (§2) Seeds of mono- and dicotyledonous weeds and crop plants were laid out in plastic or organic plant pots and covered with soil. The compounds of the invention formulated in the form of wettable powders (WP) or as emulsion concentrates (EC) were then applied to the surface of the covering soil as an aqueous suspension or emulsion with addition of 0.5% additive at a water application rate equivalent to 600 L/ha. After the treatment, the pots were placed in a greenhouse and kept under good growth conditions for the test plants. After about 3 weeks, the efficacy of the preparations was scored visually as a percentage by comparison with untreated controls. For example, 100% efficacy=plants have died. 0% efficacy=like control plants. Tables B1 to B17 below show the efficacies of selected compounds of the general formula (I) according to tables I.1 to I.50 on various harmful plants and an application rate corresponding to 320 g/ha or lower that were obtained by the aforementioned trial method.

[13] = test system: Lolium rigidum; test: as above; details: application rate 320 g/ha
Excerpt: as §2

[14] = test system: Echinochloa crus-galli; test: as above; details: application rate 320 g/ha
Excerpt: as §2

[15] = test system: Hordeum murinum; test: as above; details: application rate 320 g/ha
Excerpt: as §2

[16] = test system: Abutilon theophrasti; test: as above; details: application rate 320 g/ha
Excerpt: as §2

[17] = test system: Polygonum convolvulus; test: as above; details: application rate 320 g/ha
Excerpt: as §2

[18] = test system: Setaria viridis; test: as above; details: application rate 320 g/ha
Excerpt: as §2

[19] = test system: Alopecurus myosuroides; test: as above; details: application rate 320 g/ha
Excerpt: as §2

[20] = test system: Stellaria media; test: as above; details: application rate 320 g/ha
Excerpt: as §2

[21] = test system: Veronica persica; test: as above; details: application rate 320 g/ha
Excerpt: as §2

[22] = test system: Pharbitis purpurea; test: as above; details: application rate 320 g/ha
Excerpt: as §2

[23] = test system: Amaranthus retroflexus; test: as above
Excerpt: as §2

[24] = test system: Triticum aestivum; test: Crop compatibility post-emergence, greenhouse pot test
Experimental: as §1, with “plants.” for “plants. Tables A1 to A16 below show the efficacies of selected compounds of the general formula (I) according to tables I.1 to I.50 on various harmful plants and an application rate corresponding to 80 g/ha or lower that were obtained by the aforementioned trial method.”
(§3) Crop plant compatibilities were also scored correspondingly.
(§4) The effects observed are reported here on selected crop plants by comparison, with the untreated controls (values in %).

[25] = test system: Zea mays; test: as above
Experimental: as §1, with “plants.” for “plants. Tables A1 to A16 below show the efficacies of selected compounds of the general formula (I) according to tables I.1 to I.50 on various harmful plants and an application rate corresponding to 80 g/ha or lower that were obtained by the aforementioned trial method.”
as §3, §4

[26] = test system: Matricaria inodora; test: Herbicidal action pre-emergence, greenhouse pot test; details: application rate 320 g/ha
Excerpt: as §2, with “according to tables I.1 to I.50 on various harmful plants and an application rate corresponding to 320 g/ha or lower that were obtained by the” left out

[27] = test system: Alopecurus myosuroides; test: Herbicidal action post-emergence, greenhouse pot test; details: scored visually after about 3 weeks vs untreated controls
Experimental: as §1

[28] = test system: Avena fatua; test: Herbicidal action pre-emergence, greenhouse pot test; details: application rate 320 g/ha
Excerpt: as §2

[29] = test system: Oryza sativa; test: Crop compatibility post-emergence, greenhouse pot test
Experimental: as §1, with “plants.” for “plants. Tables A1 to A16 below show the efficacies of selected compounds of the general formula (I) according to tables I.1 to I.50 on various harmful plants and an application rate corresponding to 80 g/ha or lower that were obtained by the aforementioned trial method.”
as §3, §4

[30] = test system: Digitaria sanguinalis; test: Herbicidal action post-emergence, greenhouse pot test; details: application rate 20 g/ha

Row | Structure (SMILES) | Zea mays (Efficacy in %) ([25]; application rate 5 g/ha) [%] | Oryza sativa (Efficacy in %) ([29]; application rate 20 g/ha) [%] | Viola tricolor (Efficacy in %) ([1]; application rate 80 g/ha) [%] | Echinochloa crus-galli (Efficacy in %) ([3]; application rate 80 g/ha) [%] | Abutilon theophrasti (Efficacy in %) ([4]; application rate 80 g/ha) [%] | Polygonum convolvulus (Efficacy in %) ([5]; application rate 80 g/ha) [%] | Setaria viridis (Efficacy in %) ([6]; application rate 80 g/ha) [%] | Stellaria media (Efficacy in %) ([7]; application rate 80 g/ha) [%] | Veronica persica (Efficacy in %) ([8]; application rate 80 g/ha) [%] | Pharbitis purpurea (Efficacy in %) ([9]; application rate 80 g/ha) [%] | Amaranthus retroflexus (Efficacy in %) ([11]; application rate 20 g/ha) [%] | Viola tricolor (Efficacy in %) ([1]; application rate 20 g/ha) [%] | Echinochloa crus-galli (Efficacy in %) ([3]; application rate 20 g/ha) [%] | Abutilon theophrasti (Efficacy in %) ([4]; application rate 20 g/ha) [%] | Polygonum convolvulus (Efficacy in %) ([5]; application rate 20 g/ha) [%] | Setaria viridis (Efficacy in %) ([6]; application rate 20 g/ha) [%] | Veronica persica (Efficacy in %) ([8]; application rate 20 g/ha) [%] | Pharbitis purpurea (Efficacy in %) ([9]; application rate 20 g/ha) [%] | Matricaria inodora (Efficacy in %) ([10]; application rate 20 g/ha) [%] | Digitaria sanguinalis (Efficacy in %) [30] [%] | also measured
1 | CC(Sc1cc(-n2c(=O)cc(C(F)(F)F)n(C)c2=O)c(F)cc1Cl)C(=O)OCCC(=O)O (stereo not drawn) [I.1-1] | 10 |  | 100 | 100 | 100 | 100 | 100 | 100 | 100 | 100 | 100 |  |  |  |  |  |  |  |  |  | Lolium rigidum (Efficacy in %) ([2]; application rate 80 g/ha): 80%; Matricaria inodora (Efficacy in %) ([10]; application rate 80 g/ha): 100%; Viola tricolor (Efficacy in %) [12]: 100%; Lolium rigidum (Efficacy in %) [13]: 100%; Echinochloa crus-galli (Efficacy in %) [14]: 100%; Hordeum murinum (Efficacy in %) [15]: 90%; Abutilon theophrasti (Efficacy in %) [16]: 100%; Polygonum convolvulus (Efficacy in %) [17]: 100%; Setaria viridis (Efficacy in %) [18]: 100%; Alopecurus myosuroides (Efficacy in %) [19]: 100%; Stellaria media (Efficacy in %) [20]: 100%; Veronica persica (Efficacy in %) [21]: 100%; Pharbitis purpurea (Efficacy in %) [22]: 100%; Amaranthus retroflexus (Efficacy in %) ([23]; application rate 20 g/ha): 100%; Triticum aestivum (Efficacy in %) ([24]; application rate 80 g/ha): 20%; Matricaria inodora (Efficacy in %) [26]: 100%
2 | CC(Sc1cc(-n2c(=O)cc(C(F)(F)F)n(C)c2=O)c(F)cc1Cl)C(=O)OCCC(=O)N(C)C (stereo not drawn) [I.1-231] | 20 |  |  |  |  |  |  |  |  |  | 100 | 100 | 100 | 100 | 100 | 100 | 100 | 100 | 100 | 100 | Stellaria media (Efficacy in %) ([7]; application rate 20 g/ha): 100%; Triticum aestivum (Efficacy in %) ([24]; application rate 5 g/ha): 20%; Oryza sativa (Efficacy in %) ([29]; application rate 5 g/ha): 10%
3 | CCC(Sc1cc(-n2c(=O)cc(C(F)(F)F)n(C)c2=O)c(F)cc1Cl)C(=O)OCC(C)(C)C(=O)OC (stereo not drawn) [I.2-32] | 20 | 0 |  |  |  |  |  |  |  |  | 100 | 100 | 100 | 100 | 100 | 100 | 100 | 100 | 100 | 100 | Lolium rigidum (Efficacy in %) ([2]; application rate 20 g/ha): 80%; Alopecurus myosuroides (Efficacy in %) ([27]; application rate 20 g/ha): 80%; Triticum aestivum (Efficacy in %) ([24]; application rate 5 g/ha): 20%

Further lines, with some results ahead:

Row | Zea mays (Efficacy in %) ([25]; application rate 5 g/ha) [%] | Oryza sativa (Efficacy in %) ([29]; application rate 20 g/ha) [%] | Structure (SMILES) | Viola tricolor (Efficacy in %) ([1]; application rate 80 g/ha) [%] | Echinochloa crus-galli (Efficacy in %) ([3]; application rate 80 g/ha) [%] | Abutilon theophrasti (Efficacy in %) ([4]; application rate 80 g/ha) [%] | Polygonum convolvulus (Efficacy in %) ([5]; application rate 80 g/ha) [%] | Setaria viridis (Efficacy in %) ([6]; application rate 80 g/ha) [%] | Stellaria media (Efficacy in %) ([7]; application rate 80 g/ha) [%] | Veronica persica (Efficacy in %) ([8]; application rate 80 g/ha) [%] | Pharbitis purpurea (Efficacy in %) ([9]; application rate 80 g/ha) [%] | Amaranthus retroflexus (Efficacy in %) ([11]; application rate 20 g/ha) [%] | Viola tricolor (Efficacy in %) ([1]; application rate 20 g/ha) [%] | Echinochloa crus-galli (Efficacy in %) ([3]; application rate 20 g/ha) [%] | Abutilon theophrasti (Efficacy in %) ([4]; application rate 20 g/ha) [%] | Polygonum convolvulus (Efficacy in %) ([5]; application rate 20 g/ha) [%] | Setaria viridis (Efficacy in %) ([6]; application rate 20 g/ha) [%] | Veronica persica (Efficacy in %) ([8]; application rate 20 g/ha) [%] | Pharbitis purpurea (Efficacy in %) ([9]; application rate 20 g/ha) [%] | Matricaria inodora (Efficacy in %) ([10]; application rate 20 g/ha) [%] | Digitaria sanguinalis (Efficacy in %) [30] [%] | also measured
4 | 20 | 10 | CC(Sc1cc(-n2c(=O)cc(C(F)(F)F)n(C)c2=O)c(F)cc1Cl)C(=O)OCCC(N)=O (stereo not drawn) [I.1-151] | 100 | 100 | 100 | 100 | 100 | 90 | 100 | 100 |  |  |  |  |  |  |  |  |  |  | Alopecurus myosuroides (Efficacy in %) ([27]; application rate 80 g/ha): 90%; Matricaria inodora (Efficacy in %) ([10]; application rate 80 g/ha): 100%; Amaranthus retroflexus (Efficacy in %) ([11]; application rate 80 g/ha): 100%; Viola tricolor (Efficacy in %) [12]: 100%; Lolium rigidum (Efficacy in %) [13]: 90%; Echinochloa crus-galli (Efficacy in %) [14]: 100%; Hordeum murinum (Efficacy in %) [15]: 80%; Abutilon theophrasti (Efficacy in %) [16]: 100%; Polygonum convolvulus (Efficacy in %) [17]: 100%; Avena fatua (Efficacy in %) [28]: 90%; Setaria viridis (Efficacy in %) [18]: 100%; Stellaria media (Efficacy in %) [20]: 100%; Veronica persica (Efficacy in %) [21]: 100%; Pharbitis purpurea (Efficacy in %) [22]: 100%; Amaranthus retroflexus (Efficacy in %) ([23]; application rate 80 g/ha): 100%; Triticum aestivum (Efficacy in %) ([24]; application rate 80 g/ha): 20%; Matricaria inodora (Efficacy in %) [26]: 100%
5 |  | 0 | CCCOC(=O)CCOC(=O)C(CC)Sc1cc(-n2c(=O)cc(C(F)(F)F)n(C)c2=O)c(F)cc1Cl (stereo not drawn) [I.2-8] |  |  |  |  |  |  |  |  | 100 | 100 | 100 | 100 | 100 | 100 | 100 | 100 | 100 | 100 | Stellaria media (Efficacy in %) ([7]; application rate 20 g/ha): 100%; Triticum aestivum (Efficacy in %) ([24]; application rate 20 g/ha): 0%; Zea mays (Efficacy in %) ([25]; application rate 20 g/ha): 0%
